Patent US10799503B2, “Methods for the treatment of cancer” (IGNYTA, INC., priority 2016, dated 2020)

Experiments:
[1] = Phase I and Phase Ib clinical studies (Example 4): treatment-related adverse events and disposition; format: in vivo, human
Experimental: Phase I and Phase Ib clinical studies were performed in which 92 total subjects were enrolled, 91 of which were treated, and of which 35 in the Phase Ib portion were determined to be molecularly evaluable and were treated.
Table 4 provides a summary of the most common, treatment-related adverse events (AEs) in all patients that were treated (n=91), expressed as a percentage of the 91 patients.

[2] = Phase I and Phase Ib clinical studies (Example 5, data cut-off Aug. 1, 2017): treatment-related adverse events and disposition; format: in vivo, human
From the text: The most common (>10%) treatment related AEs […].

COc1cc2ncnc(Oc3cccc(NC(=O)Nc4cc(C(C)(C)C(F)(F)F)on4)c3)c2cc1OC [N-[3-[(6,7-dimethoxy-4-quinazolinyl)oxy]phenyl]-N′-[5-(2,2,2-trifluoro-1,1-dimethylethyl)-3-isoxazolyl]-urea]
Discontinued, primary reason Death, number of subjects ([1]; 92 enrolled in Phase 1/1b): 4 n
Discontinued, primary reason Death, percent of subjects ([1]; 92 enrolled in Phase 1/1b): (4) %
ALT increase Any Grade, number of patients ([1]; human, in vivo): 6
ALT increase Any Grade, percentage of patients ([1]; human, in vivo): (7) %
ALT increase Grade ≤ 2, number of patients ([1]; human, in vivo): 1
ALT increase Grade ≤ 2, percentage of patients ([1]; human, in vivo): (1) %
ALT increase Grade ≥ 3, number of patients ([1]; human, in vivo): 5
ALT increase Grade ≥ 3, percentage of patients ([1]; human, in vivo): (6) %
AST increase Any Grade, number of patients ([1]; human, in vivo): 6
AST increase Any Grade, percentage of patients ([1]; human, in vivo): (7) %
AST increase Grade ≤ 2, percentage of patients ([1]; human, in vivo): (3) %
AST increase Grade ≥ 3, number of patients ([1]; human, in vivo): 3
AST increase Grade ≥ 3, percentage of patients ([1]; human, in vivo): (3) %
Anemia Any Grade, number of patients ([1]; human, in vivo): 6
Anemia Any Grade, percentage of patients ([1]; human, in vivo): (7) %
Anemia Grade ≤ 2, number of patients ([1]; human, in vivo): 5
Anemia Grade ≤ 2, percentage of patients ([1]; human, in vivo): (6) %
Anemia Grade ≥ 3, number of patients ([1]; human, in vivo): 1
Anemia Grade ≥ 3, percentage of patients ([1]; human, in vivo): (1) %
Decreased Appetite Any Grade, number of patients ([1]; human, in vivo): 9
Decreased Appetite Any Grade, percentage of patients ([1]; human, in vivo): (10) %
Decreased Appetite Grade ≤ 2, number of patients ([1]; human, in vivo): 9
Decreased Appetite Grade ≤ 2, percentage of patients ([1]; human, in vivo): (10) %
Decreased Appetite Grade ≥ 3, number of patients ([1]; human, in vivo): 0
Diarrhea Any Grade, number of patients ([1]; human, in vivo): 18
Diarrhea Any Grade, percentage of patients ([1]; human, in vivo): (20) %
Diarrhea Grade ≤ 2, number of patients ([1]; human, in vivo): 14
Diarrhea Grade ≤ 2, percentage of patients ([1]; human, in vivo): (15) %
Diarrhea Grade ≥ 3, number of patients ([1]; human, in vivo): 4
Diarrhea Grade ≥ 3, percentage of patients ([1]; human, in vivo): (4) %
Discontinued, primary reason Adverse Event, number of subjects ([1]; human, in vivo): 11 n
Discontinued, primary reason Adverse Event, percent of subjects ([1]; human, in vivo): (12) %
Dysgeusia Any Grade, number of patients ([1]; human, in vivo): 5
Dysgeusia Any Grade, percentage of patients ([1]; human, in vivo): (6) %
Dysgeusia Grade ≤ 2, number of patients ([1]; human, in vivo): 5
Dysgeusia Grade ≤ 2, percentage of patients ([1]; human, in vivo): (6) %
Dysgeusia Grade ≥ 3, number of patients ([1]; human, in vivo): 0
Erythema Any Grade, number of patients ([1]; human, in vivo): 7
Erythema Any Grade, percentage of patients ([1]; human, in vivo): (8) %
Erythema Grade ≤ 2, number of patients ([1]; human, in vivo): 7
Erythema Grade ≤ 2, percentage of patients ([1]; human, in vivo): (8) %
Erythema Grade ≥ 3, number of patients ([1]; human, in vivo): 0
Fatigue Any Grade, number of patients ([1]; human, in vivo): 20
Fatigue Any Grade, percentage of patients ([1]; human, in vivo): (22) %
Fatigue Grade ≤ 2, number of patients ([1]; human, in vivo): 16
Fatigue Grade ≤ 2, percentage of patients ([1]; human, in vivo): (18) %
Fatigue Grade ≥ 3, number of patients ([1]; human, in vivo): 4
Fatigue Grade ≥ 3, percentage of patients ([1]; human, in vivo): (4) %
Hypokalemia Any Grade, number of patients ([1]; human, in vivo): 6
Hypokalemia Any Grade, percentage of patients ([1]; human, in vivo): (7) %
Hypokalemia Grade ≤ 2, number of patients ([1]; human, in vivo): 6
Hypokalemia Grade ≤ 2, percentage of patients ([1]; human, in vivo): (7) %
Hypokalemia Grade ≥ 3, number of patients ([1]; human, in vivo): 0
Hypophosphatemia Any Grade, number of patients ([1]; human, in vivo): 13
Hypophosphatemia Any Grade, percentage of patients ([1]; human, in vivo): (14) %
Hypophosphatemia Grade ≤ 2, number of patients ([1]; human, in vivo): 7
Hypophosphatemia Grade ≤ 2, percentage of patients ([1]; human, in vivo): (8) %
Hypophosphatemia Grade ≥ 3, number of patients ([1]; human, in vivo): 6
Hypophosphatemia Grade ≥ 3, percentage of patients ([1]; human, in vivo): (7) %
Muscle Spasms Any Grade, number of patients ([1]; human, in vivo): 12
Muscle Spasms Any Grade, percentage of patients ([1]; human, in vivo): (13) %
Muscle Spasms Grade ≤ 2, number of patients ([1]; human, in vivo): 12
Muscle Spasms Grade ≤ 2, percentage of patients ([1]; human, in vivo): (13) %
Muscle Spasms Grade ≥ 3, number of patients ([1]; human, in vivo): 0
Nausea Any Grade, number of patients ([1]; human, in vivo): 16
Nausea Any Grade, percentage of patients ([1]; human, in vivo): (18) %
Nausea Grade ≤ 2, number of patients ([1]; human, in vivo): 16
Nausea Grade ≤ 2, percentage of patients ([1]; human, in vivo): (18) %
Nausea Grade ≥ 3, number of patients ([1]; human, in vivo): 0
Rash* Any Grade, number of patients ([1]; human, in vivo): 28
Rash* Any Grade, percentage of patients ([1]; human, in vivo): (31) %
Rash* Grade ≤ 2, number of patients ([1]; human, in vivo): 20
Rash* Grade ≤ 2, percentage of patients ([1]; human, in vivo): (22) %
Rash* Grade ≥ 3, number of patients ([1]; human, in vivo): 8
Rash* Grade ≥ 3, percentage of patients ([1]; human, in vivo): (9) %
Vomiting Any Grade, number of patients ([1]; human, in vivo): 13
Vomiting Any Grade, percentage of patients ([1]; human, in vivo): (14) %
Vomiting Grade ≤ 2, number of patients ([1]; human, in vivo): 13
Vomiting Grade ≤ 2, percentage of patients ([1]; human, in vivo): (14) %
Vomiting Grade ≥ 3, number of patients ([1]; human, in vivo): 0
Number of patients that discontinued due to death ([2]; Phase 1 (N = 55)): 3 n
Number of patients that discontinued due to death ([2]; Phase 1b Other (N = 50)): 1 n
Number of patients that discontinued due to death ([2]; Phase 1b RET+ (N = 47)): 0 n
Number of patients that discontinued due to death ([2]; Total Subjects (N = 152)): 4 n
Blood Bilirubin Increased ≤G2 ([2]; human, in vivo): 6 (4)
Blood Bilirubin Increased ≥G3 ([2]; human, in vivo): 1 (1)
Decreased Appetite ≤G2 ([2]; human, in vivo): 17 (11)
Decreased Appetite ≥G3 ([2]; human, in vivo): 0 (0)
Diarrhea ≤G2 ([2]; human, in vivo): 28 (18)
Diarrhea ≥G3 ([2]; human, in vivo): 6 (4)
Elevated Alanine Aminotransferase ≤G2 ([2]; human, in vivo): 4 (3)
Elevated Alanine Aminotransferase ≥G3 ([2]; human, in vivo): 11 (7)
Elevated Aspartate Aminotransferase ≤G2 ([2]; human, in vivo): 9 (6)
Elevated Aspartate Aminotransferase ≥G3 ([2]; human, in vivo): 6 (4)
Fatigue ≤G2 ([2]; human, in vivo): 27 (18)
Fatigue ≥G3 ([2]; human, in vivo): 5 (3)
Hypophosphatemia ≤G2 ([2]; human, in vivo): 13 (9)
Hypophosphatemia ≥G3 ([2]; human, in vivo): 11 (7)
Muscle Spasms ≤G2 ([2]; human, in vivo): 19 (13)
Muscle Spasms ≥G3 ([2]; human, in vivo): 0 (0)
Nausea ≤G2 ([2]; human, in vivo): 21 (14)
Nausea ≥G3 ([2]; human, in vivo): 0 (0)
Rash* ≤G2 ([2]; human, in vivo): 37 (24)
Rash* ≥G3 ([2]; human, in vivo): 15 (10)
Vomiting ≤G2 ([2]; human, in vivo): 15 (10)
Vomiting ≥G3 ([2]; human, in vivo): 0 (0)
number of treatment-related serious adverse events (SAEs) ([2]; human, in vivo): 19
patients who experienced treatment-related serious adverse events (SAEs) ([2]; human, in vivo): 9%
resolution of treatment-related serious adverse events ([2]; human, in vivo): all except 1 resolved by dose modification or discontinuation
safety profile ([2]; human, in vivo): manageable safety profile
severity and reversibility of the majority of treatment-related adverse events ([2]; human, in vivo): <Grade 2 and were reversible with dose modifications
toxicities commonly associated with VEGFR inhibition (hypertension, hypothyroidism, proteinuria, neurotoxicity) ([2]; human, in vivo): rarely observed
